Results on three molecules are retold here after patent US9750705B2, “Agents useful for treating obesity, diabetes and related disorders” (The Regents of the University of California, priority 2012, dated 2017).

The subject of assay [1] is insulin-dependent activation of Akt and ERK in FL83B cells. In words: High-throughput in-cell western blot (ICWB) screen for insulin sensitizers: insulin-dependent phospho-Akt versus phospho-Erk. It is filed as cell-based, mouse. As to conditions: for rank in the insulin-sensitizer screen: screen of 1689 molecules. As for the experimental part:
Drugs were screened by in-cell western blot (ICWB) for their ability to stimulate phospho-Akt activation in the presence of trace or 10 nM insulin (FIG. 4A). Cells in wells were treated with drugs, and the activity (phosphorylation) of Akt was determined by a phospho-Akt specific antibody. In FIG. 4A, low insulin was given and drugs a, b, c, stimulated Akt activation. In FIG. 4B, 10 nM insulin was given and a, b, and c stimulated signaling over background, and d and e inhibited. […] Drugs were primarily screened for their ability to promote insulin-dependent stimulation of (phospho) Akt, then secondarily screened for lack of activity to stimulate (phospho) Erk, or a high Akt/Erk ratio. Such drugs are expected to cause insulin sensitivity, resistance to obesity, and longevity. Some drugs having these desired characteristics are Shc inhibitors.
FL83B cells were seeded on 384 well plates, 10,000 cells per well in F-12 media supplemented with 10% FBS and 25 mM glucose; 48 hours later the media was replaced with F-12, 25 mM glucose without FBS for sixteen hours; cells were supplemented with assigned drug at desired concentration for 1 hour in duplicate and then, the cells were stimulated with desired concentration of insulin for ten minutes for Akt activation and fifteen minutes for ERK activation measurements. After that time the media was removed and replaced with fixing solution of 5% Formaldehyde in PBS, pH=7.4, 30 minutes later, the fixing solution was replaced with the permeabilization buffer, 0.1% triton X100 in PBS for 40 minutes. […] After the incubation with the secondary antibodies for one hour at room temperature, the wells were washed again two times with the 0.1% tween-20 in PBS and scanned on the Li-Cor Odyssey infrared scanner; images were analyzed with the Li-Cor Odyssey software. […] Phospho-Akt, Phospho-ERK signals than were normalized by tubulin signals in each well and the densitometric results were analyzed to identify drugs which improved metabolic insulin sensitivity without inducing the mitogenic ERK activation. […]

The test system of assay [2] is phospho-Akt in FL83B cells. Description: Western blot of insulin-dependent phospho-Akt. As to conditions: for insulin-dependent phospho-Akt (P-Akt) signaling/activation: drug 1 hour, insulin 10 minutes. It is filed as cell-based, mouse. How it is done:
As explained above and in Example 4, Western blots of phospho-Akt and phospho-Erk are a more accurate and precise and quantitative measure of Akt phosphorylation than ICWB measurements. Insulin-dependent phospho-Akt is a direct measurement of insulin sensitivity, and we expect that Shc inhibitors will stimulate phospho-Akt more than phospho-Erk. All of the drugs listed in FIG. 5A stimulated insulin-dependent phospho-Akt at some concentration. Method. Mouse liver cells FL83B were plated at density of 400.000 cells per well of 6 well plate and cultivated for 48 hours, media was changed to DMEM, 25 mM glucose serum free and 16 hours later the cells were treated with drug at the indicated concentration for one hour. Control wells were treated with the vehicle (DMSO), in certain control wells the metabolic (Akt) insulin signaling was blocked with wortmannin. The cells were induced with indicated concentration of insulin for 10 minutes, total protein was extracted and the Western Blots were performed with indicated antibody as described above. […]
(In general: Immunoblotting shows a protein as a band on a membrane.)

The subject of assay [3] is phospho-Erk in FL83B cells. In words: Western blot of phospho-Erk. It is filed as cell-based, mouse. As to conditions: drug 1 hour, then insulin. How it is done: As explained above and in Example 4, Western blots of phospho-Akt and phospho-Erk are a more accurate and precise and quantitative measure of Akt phosphorylation than ICWB measurements. Insulin-dependent phospho-Akt is a direct measurement of insulin sensitivity, and we expect that Shc inhibitors will stimulate phospho-Akt more than phospho-Erk. All of the drugs listed in FIG. 5A stimulated insulin-dependent phospho-Akt at some concentration. Method. Mouse liver cells FL83B were plated at density of 400.000 cells per well of 6 well plate and cultivated for 48 hours, media was changed to DMEM, 25 mM glucose serum free and 16 hours later the cells were treated with drug at the indicated concentration for one hour. Control wells were treated with the vehicle (DMSO), in certain control wells the metabolic (Akt) insulin signaling was blocked with wortmannin. The cells were induced with indicated concentration of insulin for 10 minutes, total protein was extracted and the Western Blots were performed with indicated antibody as described above. Mouse liver cells FL83B were plated at density of 400.000 cells per well of 6 well plate and cultivated for 48 hours, media was changed to DMEM, 25 mM glucose serum free and 16 hours later the cells were treated with drug at the indicated concentration for one hour. […]

In the next assay the test system is phospho-Shc. In words: Western blot of phospho-Shc (Shc activation). It is filed as cell-based. As to conditions: dose response. As for the experimental part:
Assays to identify compounds useful for preventing, reducing, delaying or inhibiting symptoms of impaired insulin sensitivity, glucose intolerance or obesity can be performed in vitro. Candidate agents can be contacted with a population of test cells in the presence of insulin (e.g., 1 nM, 5 nM, 10 nM, 100 nM or more). An agent that prevents, reduces, delays or inhibits one or more symptoms of impaired insulin sensitivity, glucose intolerance or obesity increases the ratio of levels of phospho-Akt-1 over phospho-Erk relative to a control ratio. The increase in ratio of levels of phospho-Akt-1 over phospho-Erk can be determined in comparison to a control population of cells that have not been contacted with insulin or have been contacted with a low concentration of insulin (e.g., less than 0.1 nM) or a population of cells contacted with insulin but not with the compound under test. Ratio of levels of phospho-Akt-1 over phospho-Erk can be determined using a Western blot among other methods. Inhibition of Shc activity can be quantitatively measured by assaying the reduction of stimulatory Shc phosphorylation, using a phospho-Shc specific antibody. Inhibition of Shc expression can be measured using a Western blot. […]

Assay [4] can be described thus: Basal blood glucose in mice after daily drug administration. It is filed as in vivo. As to conditions: 2.5 mg/kg I.P. for 4 days. How it is done: Groups of age/sex matched mice of Control and ShcKO genotypes were food deprived for four hours and challenged with I.P. injection of insulin, and glucose concentration was determined in blood exactly at indicated time-points. Decrease and recovery of blood glucose was calculated as a % of basal level (the time-point before insulin injection). Basal levels of glucose were measured in triplicate for each mouse. For the GTT, the same groups of mice were fasted during fourteen hours and challenged with glucose injection I.P., analogously the blood glucose concentrations were measured.
Groups of mice, ten for the experimental drug treatment and 14 for the placebo treatment were subject for I.P. administration of a drug or placebo solutions daily during four days. Acarbose, a known drug which decreases blood glucose concentration was used as a control. The insulin tolerance test, ITT was performed on the mice as described previously, in Example 2.

A short description of assay [5]: Insulin tolerance test (ITT) in mice. It is filed as in vivo.

Counter-ions that a name gives are not always drawn.

As for `COc1cc2ncnc(Nc3ccc(Oc4ccccc4)cc3)c2cc1OC` [Src I-1], the “rank in the insulin-sensitizer screen” value in assay [1] is reported as “top 35 out of 1689”. Moreover, the P-Akt/P-Erk ratio entry in assay [2] (Western blot) is listed as “increasing the P-Akt/P-Erk ratio”. Besides, the “insulin-dependent phospho-Akt (P-Akt) signaling/activation” value in assay [2] is recorded as “stimulates insulin-dependent P-Akt signaling”. The Erk activation entry in assay [3] is reported as “decreased Erk activation”. Moreover, the “phospho-Shc (Shc activation)” value in the assay with phospho-Shc is on record as “inhibited phospho-Shc activation in dose-dependent manner”. Moreover, in assay [4], the basal blood glucose entry is recorded as “significantly decreased basal blood glucose”. Moreover, the “insulin sensitivity in-vivo (ITT)” value in assay [5] (2.5 mg/kg I.P. for 4 days) is recorded as “increased insulin sensitivity in-vivo”.
For `COC1=C(OC)C(=O)C(CCCCCCCCCCO)=C(C)C1=O` [idebenone], the “P-Akt/P-Erk ratio in the primary screen” value in assay [1] (ICWB, FL83B cells) is on record as “increased P-Akt/P-Erk ratio”. Also, the “insulin-dependent phospho-Akt (P-Akt) signaling/activation” value in assay [2] was “increased insulin-dependent phospho-Akt activation in a dose-dependent manner”. In the assay on phospho-Shc, the “phospho-Shc (Shc activation)” value was “decreased phospho-Shc in a dose-dependent manner”. Also, in assay [5] (PO, 20 and 50 mg/kg), the “insulin sensitivity in vivo (ITT)” value is on record as “increased insulin sensitivity in vivo”.
As to `CN(C)C(=N)N=C(N)N` [metformin, metformin hydrochloride], in assay [1], the “rank in the insulin-sensitizer screen” value was “top 35 out of 1689”.
